Reference: US11214803B2, “Modulators of YAP1 expression” (Ionis Pharmaceuticals, Inc., priority 2019, dated 2022)
Strand notation (5' to 3'): a small letter for the sugar, then the base; units joined by * are phosphorothioate-linked, units joined directly phosphodiester-linked; [ ] holds rarer units or linkages, { } end groups; capitals alone tell only the bases. k = constrained ethyl (cEt); [5mC] = 5-methylcytosine; d = 2'-deoxy (DNA)

Columns and labels:
Yap1 mRNA [1] = assay: Dose-dependent inhibition of human Yap1 in A-431 cells (Example 8, 10,000 cells per well, RTS4814); format: cell-based; settings: free uptake, approximately 48 hours, RTS4814; for Yap1 mRNA, % UTC: A-431 cells, 10,000 cells per well
Summary of the method: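 Yap1 mRNA, normalized to RIBOGREEN total RNA and expressed as % untreated control, was read with RTS4814 about 48 h after free-uptake oligonucleotide treatment of A-431 cells at 10,000 cells/well. IC50 derived by linear regression of log/linear data.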

[2] = Tolerability in CD-1 mice, plasma chemistry markers (Example 18); format: in vivo; settings: male CD-1 mice, 50 mg/kg s.c. twice a week (total of 9 treatments), day 34
Procedure: (§1) CD-1 mice were treated with modified oligonucleotides selected from studies described above and evaluated for changes in the levels of various plasma chemistry markers.
(§2) Groups of four male CD-1 mice at 5-6 weeks of age (obtained from Charles River) were injected subcutaneously twice a week for four weeks (for a total of 9 treatments) with 50 mg/kg of modified oligonucleotides. One group of male CD-1 mice was injected with PBS. Mice were euthanized on day 34 post start of treatment (24 hours following the final administration).

[3] = Tolerability in CD-1 mice, body and organ weights (Example 18); format: in vivo; settings: male CD-1 mice, 50 mg/kg s.c. twice a week (total of 9 treatments), end of study (day 34)
Procedure: as §2
(§3) Body weights of CD-1 mice were measured at the end of the study, and the average body weight for each group is presented in the table below. Modified oligonucleotides that caused any changes in organ weights outside the expected range for modified oligonucleotides were excluded from further studies.

[4] = Tolerability in Sprague-Dawley rats, plasma chemistry markers (Example 20); format: in vivo; settings: male Sprague-Dawley rats, 50 mg/kg s.c. weekly for 6 weeks (7 doses), 48 hours after last dose
Procedure: Sprague-Dawley rats are a multipurpose model used for safety and efficacy evaluations. The rats were treated with Ionis modified oligonucleotides from the studies described in the Examples above and evaluated for changes in the levels of various plasma chemistry markers.

[5] = Tolerability in Sprague-Dawley rats, body and organ weights (Example 20); format: in vivo; settings: male Sprague-Dawley rats, 50 mg/kg s.c. weekly for 6 weeks (7 doses); for Kidney weight / Liver weight / Spleen weight: end of study; for body weight: terminal, prior to necropsy
Procedure: Terminal body weight was measured prior to necropsy. Ionis oligonucleotides that caused any changes in organ weights outside the expected range for modified oligonucleotides were excluded from further studies.

Yap1 mRNA [6] = assay: Inhibition of human Yap1 mRNA in SNU449 hepatocellular carcinoma xenograft tumors (Example 26); format: in vivo; settings: SNU449 xenografts in NSG mice, 50 mg/kg twice weekly for five days, relative to PBS treated animals
Procedure: A SNU449 hepatocellular carcinoma xenograft tumor model was used to evaluate activity of modified oligonucleotides targeted to human Yap1. Ten million SNU449 cells in 30% matrigel were implanted subcutaneously into the flanks of female NOD Cg-Prkdcscid ll2rgtm1Wjl/SzJ (NSG) mice (from Jackson Laboratory) at 4-6 weeks of age. When tumors reached an average volume of 100 mm^3, approximately two weeks post-implantation, groups of four mice each were administered at 50 mg/kg twice weekly with modified oligonucleotides for five days. Tumors were collected and tested for Yap1 mRNA knockdown by RT-qPCR. Yap1 mRNA levels were measured as previously described using the Human Yap1 primer-probe set RTS4814. Yap1 mRNA levels were normalized to actin-beta content, as measured by primer probe set RTS5002. Results are presented in the tables below as percent control of the amount of Yap1 mRNA relative to PBS treated animals (% control).

[7] = Tolerability in Sprague-Dawley rats, kidney function, urine total protein to creatinine ratio (Example 20); settings: male Sprague-Dawley rats, 50 mg/kg subcutaneously weekly for 6 weeks (total 7 doses)
Procedure: Male Sprague-Dawley rats were maintained on a 12-hour light/dark cycle and fed ad libitum with Purina normal rat chow. Groups of 4 Sprague-Dawley rats each were weekly injected subcutaneously with 50 mg/kg of Ionis oligonucleotide for 6 weeks (total 7 doses). Forty-eight hours after the last dose, the rats were euthanized; and organs, urine and plasma were harvested for further analysis.
To evaluate the effect of Ionis oligonucleotides on kidney function, urinary levels of total protein and creatinine were measured using an automated clinical chemistry analyzer (Hitachi Olympus AU400c, Melville, N.Y.).

[8] = Tolerability in CD-1 mice, plasma chemistry markers (Example 17); format: in vivo; settings: male CD-1 mice, 50 mg/kg s.c. twice a week for four weeks (8 treatments), day 27
Procedure: as §1
as §2, with “4-5” for “5-6”, “8” for “9”, “27” for “34”, “hrs” for “hours”

[9] = Tolerability in CD-1 mice, body and organ weights (Example 17); format: in vivo; settings: male CD-1 mice, 50 mg/kg s.c. twice a week for four weeks (8 treatments), end of study (day 27)
Procedure: as §2, with “4-5” for “5-6”, “8” for “9”, “27” for “34”, “hrs” for “hours”
as §3

Yap1 mRNA [10] = assay: Dose-dependent inhibition of human Yap1 in SNU-449 cells (Example 9, RTS36584); format: cell-based; settings: free uptake; for % UTC (Yap1 mRNA): approximately 48 hours
Summary of the method: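 Read-out was Yap1 mRNA (primer-probe RTS36584) normalised to total RNA by RIBOGREEN, given as % of untreated cells, with IC50 fitted by linear regression of log/linear data. Oligonucleotides were dosed by free uptake to SNU-449 cells, 10,000/well, for ~48 h.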

[11] = Tolerability in CD-1 mice, plasma chemistry markers (Example 16); format: in vivo; settings: male CD-1 mice, 50 mg/kg s.c. twice a week for four weeks (8 treatments), day 27
Procedure: as §1
as §2, with “4-5” for “5-6”, “8” for “9”, “27” for “34”, “hrs” for “hours”

[12] = Tolerability in CD-1 mice, body and organ weights (Example 16); format: in vivo; settings: male CD-1 mice, 50 mg/kg s.c. twice a week for four weeks (8 treatments), end of study (day 27)
Procedure: as §2, with “4-5” for “5-6”, “8” for “9”, “27” for “34”, “hrs” for “hours”
as §3

With “1074755 (k[5mC]*kA*k[5mC]*dT*dT*dT*dT*dA*d[5mC]*dA*dT*dT*dA*kG*kG*kA; antisense) [compound 1074755]” the “Yap1 mRNA, % UTC” value (Yap1 mRNA [1]; 31.3 nM) was 28 % UTC, the “Yap1 mRNA, % UTC” value (Yap1 mRNA [1]; 125.0 nM) was 9 % UTC and the “Yap1 mRNA, % UTC” value (Yap1 mRNA [1]; 500.0 nM) was 5 % UTC. The “Yap1 mRNA, % UTC” value (Yap1 mRNA [1]; 2000.00 nM) was 3 % UTC, the IC50 (Yap1 mRNA [1]; A-431 cells, linear regression on log/linear plot) was < 20 nM and the ALT [2] was 88 U/L. For the same substance, the AST [2] was 104 U/L, the BUN [2] was 22 mg/dL and the TBIL [2] was 0.21 mg/dL. For the same substance, the Kidney weight [3] was 0.61 g, the Liver weight [3] was 2.27 g and the Spleen weight [3] was 0.19 g. For the same substance, the body weight [3] was 39 g, the ALB [4] was 2.99 g/dL and the ALT [4] was 57 U/L. The AST [4] was 97 U/L, the BUN [4] was 29 mg/dL and the TBIL [4] was 0.12 mg/dL. It also gave a Kidney weight [5] of 3.3 g, a Liver weight [5] of 16 g and a Spleen weight [5] of 2.1 g. For the same substance, the body weight [5] was 357 g, the “Yap1 mRNA in tumors, % control” value (Yap1 mRNA [6]) was 70 % control and the “URINE P/C ratio (total protein to creatinine ratio)” value (from here on “URINE P/C ratio”) [7] was 5.
“1097224 (k[5mC]*kT*k[5mC]*dT*dT*dA*dT*dA*dT*dG*dG*dT*dT*kT*kT*kG; antisense) [compound 1097224]” showed an ALT [8] of 39 U/L, an AST [8] of 78 U/L and a BUN [8] of 21 mg/dL. For the same substance, the TBIL [8] was 0.09 mg/dL, the Kidney weight [9] was 0.54 g and the Liver weight [9] was 1.93 g. It also gave a Spleen weight [9] of 0.16 g, a body weight [9] of 37 g and an ALB [4] of 1.61 g/dL. For the same substance, the ALT [4] was 31 U/L, the AST [4] was 51 U/L and the BUN [4] was 86 mg/dL. It also gave a TBIL [4] of 0.07 mg/dL, a Kidney weight [5] of 4.5 g and a Liver weight [5] of 13 g. For the same substance, the Spleen weight [5] was 1.4 g, the body weight [5] was 316 g and the “URINE P/C ratio” value [7] was 87.
For “1076187 (kG*kA*kT*dT*dT*dA*dG*dG*dA*dT*dG*d[5mC]*dA*kT*kG*kG; antisense) [compound 1076187]”, the “% UTC (Yap1 mRNA)” value (Yap1 mRNA [10]; 31.3 nM) was 68 % UTC, the “% UTC (Yap1 mRNA)” value (Yap1 mRNA [10]; 125.0 nM) was 46 % UTC and the “% UTC (Yap1 mRNA)” value (Yap1 mRNA [10]; 500.0 nM) was 24 % UTC. The “% UTC (Yap1 mRNA)” value (Yap1 mRNA [10]; 2000.00 nM) was 12 % UTC, the IC50 (Yap1 mRNA [10]; linear regression on a log/linear plot) was 100 nM and the ALT [11] was 57 U/L. For the same substance, the AST [11] was 90 U/L, the Albumin [11] was 2.3 g/dL and the BUN [11] was 20 mg/dL. For the same substance, the TBIL [11] was 0.18 mg/dL, the Kidney weight [12] was 0.56 g and the Liver weight [12] was 1.95 g. It also gave a Spleen weight [12] of 0.14 g, a body weight [12] of 34 g and an ALB [4] of 2.91 g/dL. For the same substance, the ALT [4] was 54 U/L, the AST [4] was 113 U/L and the BUN [4] was 21 mg/dL. It also gave a TBIL [4] of 0.10 mg/dL, a Kidney weight [5] of 3.0 g and a Liver weight [5] of 17 g. The Spleen weight [5] was 1.7 g, the body weight [5] was 344 g and the “URINE P/C ratio” value [7] was 5.
